Measured values published in patent publication US12617770B2, “IRAK inhibitor and preparation method therefor and use thereof” (WUHAN CREATERNA SCIENCE AND TECHNOLOGY CO., LTD., priority 2019, dated 2026).

target: T1, human IRAK4 (Homo sapiens, UniProt Q9NWZ3); assay: IRAK4 MSA (Mobility-Shift Assay) at Km concentration of ATP; assay type: biochemical; settings: GST-IRAK4 1 nM, ATP 37 μM (Km); read-out: IC50 for inhibiting human IRAK4 activity
T1 construct: purchased Cama (so in the source)
T1 sequence (Q9NWZ3 1-460): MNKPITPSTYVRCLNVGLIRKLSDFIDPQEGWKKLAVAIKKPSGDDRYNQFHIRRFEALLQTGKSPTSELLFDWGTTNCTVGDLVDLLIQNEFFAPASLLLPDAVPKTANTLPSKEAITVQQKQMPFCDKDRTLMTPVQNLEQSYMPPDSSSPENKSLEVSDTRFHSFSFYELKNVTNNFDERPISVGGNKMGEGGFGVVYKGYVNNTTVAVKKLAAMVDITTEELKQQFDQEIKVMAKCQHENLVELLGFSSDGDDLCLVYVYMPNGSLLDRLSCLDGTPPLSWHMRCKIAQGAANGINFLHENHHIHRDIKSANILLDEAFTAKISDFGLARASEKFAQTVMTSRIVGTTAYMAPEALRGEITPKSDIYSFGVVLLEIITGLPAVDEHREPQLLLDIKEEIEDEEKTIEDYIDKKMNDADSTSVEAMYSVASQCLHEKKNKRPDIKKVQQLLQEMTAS
Experimental: A recombinant fusion protein of N-terminal GST (glutathione-S-transferase) and human IRAK4 was used as enzyme (GST-IRAK4, kinase IRAK4 (Cama, CAT No. 09-145)) at a final concentration of 1 nM; ATP (Sigma. CAT No. A7699-1G) was at a final concentration of 37 μM; • the substrates used for the kinase reaction were 5-FAM (5-carboxyfluorescein)-labeled polypeptide (5-FAM-[…]-COOH) and substrate peptide FAM-P8 (GL Biochem, CAT No. 112396) at final concentrations of 5 μM.
In this assay, 500 μM stock solutions of the compounds were prepared in 100% DMSO, and serially 4-fold diluted to the 10th concentration gradient with 100% DMSO, followed by a 10-fold dilution in the compound buffer (50 mM HEPES, pH 7.5, 0.00015% Brij-35) to give intermediate dilutions of the compounds at a final concentration of 10 μM−0.04 nM containing 10% DMSO. 5 μL of the intermediate dilution was transferred into a black 384-well plate.
IRAK4 was diluted to 2.5 nM in the kinase buffer (50 mM HEPES, pH 7.5, 0.00015% Brij-35, 2 mM DTT). 10 μL of the IRAK4 dilution was transferred to the 384-well plate and co-incubated with the compound for 10-15 min.
The substrate and ATP were diluted to 12.5 μM and 92.5 μM with reaction buffer (50 mM HEPES, pH 7.5, 0.00015% Brij-35, 10 mM MgCl2), respectively. 10 μL of the dilution was transferred to a 384-well plate and incubated at 28° C. for 1 h. The reaction was terminated by adding 25 μL of 50 mM EDTA to the 384-well plate.
The inhibition rate of IRAK4 by the compounds was calculated by measuring the rate of phosphorylated substrate using a Caliper EZ Reader (PerkinElmer) and the IC50 was calculated by XL-fit software. […] In particular, some exemplary compound activity values are as follows: […]

Compound | IC50
Cc1cccc(C(=O)Nc2cc3cn([C@H]4CC[C@](C)(O)CC4)nc3cc2N(C)C)[n+]1[O-] [Compound 010, 2-((6-(dimethylamino)-2-((1r,4r)-4-hydroxy-4-methylcyclohexyl)-2H-indazol-5-yl)carbamoyl)-6-methylpyridine 1-oxide] | 11 nM
COc1cc2nn([C@H]3CC[C@](C)(O)CC3)cc2cc1NC(=O)c1cccc(NC2CC2)[n+]1[O-] [Compound 289, 2-(cyclopropylamino)-6-((2-((1r,4r)-4-hydroxy-4-methylcyclohexyl)-6-methoxy-2H-indazol-5-yl)carbamoyl)pyridine 1-oxide] | 1.7 nM
Cc1cccc(C(=O)Nc2cc3cn([C@H]4CC[C@@](C)(O)CC4)nc3cc2N(C)C)[n+]1[O-] [Compound 287, 2-((6-(dimethylamino)-2-((1s,4s)-4-hydroxy-4-methylcyclohexyl)-2H-indazol-5-yl)carbamoyl)-6-methylpyridine 1-oxide] | 13 nM
COc1cc2nn([C@H]3CC[C@](C)(O)CC3)cc2cc1NC(=O)c1cccc(C2CC2)[n+]1[O-] [Compound 002, 2-cyclopropyl-6-((2-((1r,4r)-4-hydroxy-4-methylcyclohexyl)-6-methoxy-2H-indazol-5-yl)carbamoyl) Pyridine 1-oxide] | 3.7 nM
COc1cc2nn([C@H]3CC[C@@](O)(CC#N)CC3)cc2cc1NC(=O)c1cccc(C2CC2)[n+]1[O-] [Compound 176, 2-((2-((1r,4r)-4-(cyanomethyl)-4-hydroxycyclohexyl)-6-methoxy-2H-indazol-5-yl)carbamoyl)-6-cyclopropylpyridine 1-oxide] | 4.3 nM
Cc1cccc(C(=O)Nc2cc3cn([C@H]4CC[C@H](O)CC4)nc3cc2OCC2CC2)[n+]1[O-] [Compound 019, 2-((6-(cyclopropylmethoxy)-2-((1r,4r)-4-hydroxycyclohexyl)-2H-indazol-5-yl)carbamoyl)-6-methylpyridine 1-oxide] | 8.1 nM
COc1cc2nn([C@H]3CC[C@](C)(O)CC3)cc2cc1NC(=O)c1cccc(C)n1 [Compound B, N-(2-((1r,4r)-4-hydroxy-4-methylcyclohexyl)-6-methoxy-2H-indazol-5-yl)-6-methylpicolinamide, reference compound] | 30 nM
COc1cc2nn([C@H]3CC[C@@H](O)CC3)cc2cc1NC(=O)c1cccc(C(C)C)[n+]1[O-] [Compound 288, 2-((2-((1s,4s)-4-hydroxycyclohexyl)-6-methoxy-2H-indazol-5-yl)carbamoyl)-6-isopropylpyridine 1-oxide] | 13 nM
COc1cc2nn([C@H]3CC[C@H](O)CC3)cc2cc1NC(=O)c1cccc(C(C)C)[n+]1[O-] [Compound 015, 2-((2-((1r,4r)-4-hydroxycyclohexyl)-6-methoxy-2H-indazol-5-yl)carbamoyl)-6-isopropylpyridine 1-oxide] | 5.4 nM
COc1cc2nn([C@H]3CC[C@@H](O)CC3)cc2cc1NC(=O)c1cccc(C2CC2)[n+]1[O-] [Compound 218, 2-cyclopropyl-6-((2-((1s,4s)-4-hydroxycyclohexyl)-6-methoxy-2H-indazol-5-yl)carbamoyl)pyridine 1-oxide] | 8.3 nM
COc1cc2nn([C@H]3CC[C@@](O)(C4CC4)CC3)cc2cc1NC(=O)c1cccc(C)[n+]1[O-] [Compound 025, 2-((2-((1r,4r)-4-cyclopropyl-4-hydroxycyclohexyl)-6-methoxy-2H-indazol-5-yl)carbamoyl)-6-methylpyridine 1-oxide] | 13 nM
Cc1cccc(C(=O)Nc2cc3cn([C@H]4CC[C@@H](O)CC4)nc3cc2OCC2CC2)[n+]1[O-] [Compound 292, 2-((6-(cyclopropylmethoxy)-2-((1s,4s)-4-hydroxycyclohexyl)-2H-indazol-5-yl)carbamoyl)-6-methylpyridine 1-oxide] | 14 nM

More lines, now with the values ahead:

IC50 | Compound
28 nM | COc1cc2nn(C3CCCC3)cc2cc1NC(=O)c1cccc(C)[n+]1[O-] [Compound 284, 2-((2-cyclopentyl-6-methoxy-2H-indazol-5-yl)carbamoyl)-6-methylpyridine 1-oxide]
5.9 nM | COc1cc2nn(C3CCCCC3)cc2cc1NC(=O)c1cccc(C)[n+]1[O-] [Compound 285, 2-((2-cyclohexyl-6-methoxy-2H-indazol-5-yl)carbamoyl)-6-methylpyridine 1-oxide]
14 nM | COc1cc2nn(C3CCC(F)(F)CC3)cc2cc1NC(=O)c1cccc(C)[n+]1[O-] [Compound 286, 2-((2-(4,4-difluorocyclohexyl)-6-methoxy-2H-indazol-5-yl)carbamoyl)-6-methylpyridine 1-oxide]
14 nM | COc1cc2nn([C@H]3CC[C@](C)(C#N)CC3)cc2cc1NC(=O)c1cccc(C)[n+]1[O-] [Compound 291, 2-((2-((1r,4r)-4-cyano-4-methylcyclohexyl)-6-methoxy-2H-indazol-5-yl)carbamoyl)-6-methylpyridine 1-oxide]
14 nM | CCOc1cc2nn([C@H]3CC[C@@H](O)CC3)cc2cc1NC(=O)c1cccc(C)[n+]1[O-] [Compound 220, 2-((6-ethoxy-2-((1s,4s)-4-hydroxycyclohexyl)-2H-indazol-5-yl)carbamoyl)-6-methylpyridine 1-oxide]
9.2 nM | C#C[C@]1(O)CC[C@H](n2cc3cc(NC(=O)c4cccc(C)[n+]4[O-])c(OC)cc3n2)CC1 [Compound 187, 2-((2-((1r,4r)-4-ethynyl-4-hydroxycyclohexyl)-6-methoxy-2H-indazol-5-yl)carbamoyl)-6-methylpyridine 1-oxide]
7.1 nM | COc1cc2nn([C@H]3CC[C@@](O)(CC#N)CC3)cc2cc1NC(=O)c1cccc(C)[n+]1[O-] [Compound 175, 2-((2-((1r,4r)-4-(cyanomethyl)-4-hydroxycyclohexyl)-6-methoxy-2H-indazol-5-yl)carbamoyl)-6-methylpyridine 1-oxide]
